In ChEMBL document CHEMBL5500396, “Discovery, Multiparametric Optimization, and Solid-State Driven Identification of CHF-6550, a Novel Soft Dual Pharmacology Muscarinic Antagonist and β2 Agonist (MABA) for the Inhaled Treatment of Respiratory Diseases” (J Med Chem, 2024):

Tests used:
[1] = target: Muscarinic acetylcholine receptor M3 (Homo sapiens, UniProt P20309)
Description: Displacement of Scopolamine methyl chloride,[N-methyl-3H] from human muscarinic M3 receptor assessed as inhibition constant incubated for 2 hrs by Microbeta scintillation counter

[2] = target: Beta-2 adrenergic receptor (Homo sapiens, UniProt P07550)
Description: Displacement of [125I]-Cyanopindolol from human beta2 adrenoceptor assessed as inhibition constant incubated for 1 hrs by Microbeta scintillation counter

in vitro [3] = details: human, hepatocytes
Description: Metabolic stability in human hepatocytes assessed as clearance measured per 10^6 cells at 1 uM incubated for 90 mins by LC-MS/MS analysis

in vitro [4] = details: rat, hepatocytes
Description: Metabolic stability in rat hepatocytes assessed as clearance measured per 10^6 cells at 1 uM incubated for 90 mins by LC-MS/MS analysis

in vitro [5] = details: human, plasma
Description: Stability in human plasma assessed as half-life at 5 uM incubated for 120 mins by LC-MS/MS analysis

in vitro [6] = details: rat, plasma
Description: Stability in rat plasma assessed as half-life at 5 uM incubated for 120 mins by LC-MS/MS analysis

in vitro [7] = details: guinea pig, plasma
Description: Stability in guinea pig plasma assessed as half-life at 5 uM incubated for 120 mins by LC-MS/MS analysis

Chain of Beta-2 adrenergic receptor (P07550 whole entry): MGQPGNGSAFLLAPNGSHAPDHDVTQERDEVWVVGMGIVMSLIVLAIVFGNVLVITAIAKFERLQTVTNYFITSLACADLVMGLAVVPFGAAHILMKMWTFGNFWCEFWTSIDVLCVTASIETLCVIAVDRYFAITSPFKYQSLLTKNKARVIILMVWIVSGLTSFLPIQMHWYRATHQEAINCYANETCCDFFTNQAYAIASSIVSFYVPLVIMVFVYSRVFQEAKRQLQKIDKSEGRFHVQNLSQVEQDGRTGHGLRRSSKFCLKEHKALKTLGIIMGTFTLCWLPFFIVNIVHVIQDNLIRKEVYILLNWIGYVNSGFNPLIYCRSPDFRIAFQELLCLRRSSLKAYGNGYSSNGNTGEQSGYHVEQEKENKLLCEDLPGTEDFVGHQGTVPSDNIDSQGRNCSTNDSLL
Chain of Muscarinic acetylcholine receptor M3 (P20309 whole entry): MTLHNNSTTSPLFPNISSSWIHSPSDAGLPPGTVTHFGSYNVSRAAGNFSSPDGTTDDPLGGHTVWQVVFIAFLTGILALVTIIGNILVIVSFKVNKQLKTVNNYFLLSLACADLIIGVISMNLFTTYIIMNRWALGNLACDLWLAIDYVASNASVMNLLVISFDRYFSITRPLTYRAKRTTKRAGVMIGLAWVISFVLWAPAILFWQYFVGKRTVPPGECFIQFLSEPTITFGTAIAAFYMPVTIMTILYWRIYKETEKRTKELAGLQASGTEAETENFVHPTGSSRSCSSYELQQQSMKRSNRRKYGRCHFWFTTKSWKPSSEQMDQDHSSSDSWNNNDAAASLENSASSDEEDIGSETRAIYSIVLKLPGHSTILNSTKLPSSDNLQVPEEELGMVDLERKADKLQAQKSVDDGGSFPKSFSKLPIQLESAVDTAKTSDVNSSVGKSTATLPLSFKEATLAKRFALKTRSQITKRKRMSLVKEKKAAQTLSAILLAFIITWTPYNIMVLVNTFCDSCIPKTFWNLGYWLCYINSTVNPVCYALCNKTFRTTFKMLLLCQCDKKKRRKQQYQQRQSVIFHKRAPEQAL

SMILES | Ki [1] [pM] | Ki [2] [pM] | hepatocyte CLint at 1.5 h, 1 µM (in vitro [3]) [µL/min/1e6 cells] | hepatocyte CLint at 1.5 h, 1 µM (in vitro [4]) [µL/min/1e6 cells] | half-life at 2 h, 5 µM (in vitro [5]) [min] | half-life at 2 h, 5 µM (in vitro [6]) [min] | half-life at 2 h, 5 µM (in vitro [7]) [min]
O=C(NCCCCNC[C@H](O)c1ccc(O)c2[nH]c(=O)ccc12)c1cccc(C(=O)NC2(C(=O)O[C@H]3CN4CCC3CC4)CCc3ccccc32)c1 (single isomer, unassigned) | 12600 | 1580 |  |  |  |  | 
O=C(NCCCOc1cccc([C@](O)(C(=O)O[C@H]2CCN(Cc3ccccc3)C2)c2ccccc2)c1)c1ccc(CNC[C@H](O)c2ccc(O)c3[nH]c(=O)ccc23)cc1 |  | 398 | 22 | 71 | > 150 | 15 | 12
O=C(NCCCOc1cccc([C@](O)(C(=O)OC[C@H]2CCN(Cc3ccccc3)C2)c2ccccc2)c1)c1ccc(CNC[C@H](O)c2ccc(O)c3[nH]c(=O)ccc23)cc1 |  | 126 | 7 | 38 | > 128 | 32 | 56
O=C(NCCCCNC[C@H](O)c1ccc(O)c2[nH]c(=O)ccc12)c1ccc(C(=O)N2CCC(C(=O)O[C@H]3CN4CCC3CC4)(c3ccccc3)CC2)cc1 | 1580 | 631 |  |  |  |  | 
O=C(NCCCOc1cccc([C@](O)(C(=O)OCC2CCN(C3CCCC3)CC2)c2ccccc2)c1)c1ccc(CNC[C@H](O)c2ccc(O)c3[nH]c(=O)ccc23)cc1 | 1580 | 20 | 5 | 51 | > 150 | 14 | 139
O=C(c1ccc(CNC[C@H](O)c2ccc(O)c3[nH]c(=O)ccc23)cc1)N1CC(COc2cccc([C@](O)(C(=O)OCC3CCN(Cc4ccccc4)CC3)c3ccccc3)c2)C1 | 1260 | 1000 | 16 | 22 | > 150 | 50 | 19
CN1CCC(COC(=O)[C@@](O)(c2ccccc2)c2cccc(-c3ccc(CNC(=O)c4ccc(CNC[C@H](O)c5ccc(O)c6[nH]c(=O)ccc56)cc4)s3)c2)CC1 | 158 | 1000 | 3 | 13 | > 150 | > 150 | 9
O=C(c1ccc(OCc2ccc(CNC[C@H](O)c3ccc(O)c4[nH]c(=O)ccc34)cc2)cc1)N1CC(C(=O)OCC2CCN(Cc3ccccc3)CC2)(c2ccccc2)C1 | 7940 | 251 |  |  |  |  | 
CN1CCC[C@@H](OC(=O)[C@](O)(c2ccccc2)c2cccc(OCCCNC(=O)c3cccc(CNC[C@H](O)c4ccc(O)c5[nH]c(=O)ccc45)c3)c2)C1 |  | 2000 | 5 | 28 | > 150 | 8 | 98
O=C(NCCCOc1cccc([C@](O)(C(=O)OCC2CCN(C3CCC3)CC2)c2ccccc2)c1)c1ccc(CNC[C@H](O)c2ccc(O)c3[nH]c(=O)ccc23)cc1 | 1000 | 25.1 | 6 | 38 | > 150 | 19 | 119
O=C(NCCCOc1cccc([C@](O)(C(=O)O[C@@H]2CCCN(Cc3ccccc3)C2)c2ccccc2)c1)c1ccc(CNC[C@H](O)c2ccc(O)c3[nH]c(=O)ccc23)cc1.O=CO |  | 316 | 20 | 78 | > 150 | 5 | > 150
COc1cc(C(=O)NCCCOc2cccc([C@](O)(C(=O)O[C@@H]3CCCN(C)C3)c3ccccc3)c2)ccc1CNC[C@H](O)c1ccc(O)c2[nH]c(=O)ccc12 |  | 15.8 | 4 | 29 | > 150 | 17 | 112
COc1cc(CNC[C@H](O)c2ccc(O)c3[nH]c(=O)ccc23)c(Cl)cc1C(=O)NCCCOc1cccc([C@](O)(C(=O)O[C@@H]2CCCN(C)C2)c2ccccc2)c1 |  | 100 | 7 | 66 | > 150 | 130 | > 150
Cc1cc(C(=O)NCCCOc2cccc([C@](O)(C(=O)O[C@@H]3CCCN(C)C3)c3ccccc3)c2)c(C)cc1CNC[C@H](O)c1ccc(O)c2[nH]c(=O)ccc12 |  | 15.8 | 3 | 49 | > 150 | 30 | 142
CN1CCC(COC(=O)[C@](O)(c2ccccc2)c2cccc(-c3ccc(CNC(=O)c4ccc(CNC[C@H](O)c5ccc(O)c6[nH]c(=O)ccc56)cc4)s3)c2)CC1 | 2510 | 398 | 27 | 21 | > 150 | 88 | 48
CN1CCC[C@@H](OC(=O)[C@](O)(c2ccccc2)c2cccc(OCCCNC(=O)c3cnc(CNC[C@H](O)c4ccc(O)c5[nH]c(=O)ccc45)nc3)c2)C1.O=CO |  | 25.1 | < 2 | 33 | > 150 | 13 | 8
COc1cc(C(=O)NCCCOc2cccc([C@](O)(C(=O)O[C@@H]3CCCN(C)C3)c3ccccc3)c2)c(F)cc1CNC[C@H](O)c1ccc(O)c2[nH]c(=O)ccc12 |  | 15.8 | 7 | 40 | > 150 | 87 | > 150
O=C(NCCCCNC[C@H](O)c1ccc(O)c2[nH]c(=O)ccc12)c1ccc(C(=O)NC2(C(=O)O[C@H]3CN4CCC3CC4)CCc3ccccc32)cc1 (single isomer, unassigned) | > 50100 | 398 |  |  |  |  | 
O=C(NCCCOc1cccc([C@](O)(C(=O)O[C@H]2CCCN(Cc3ccccc3)C2)c2ccccc2)c1)c1ccc(CNC[C@H](O)c2ccc(O)c3[nH]c(=O)ccc23)cc1.O=CO |  | 501 | 19 | 53 | > 150 | 11 | 15
CN1CCC[C@H](OC(=O)[C@](O)(c2ccccc2)c2cccc(OCCCNC(=O)c3ccc(CNC[C@H](O)c4ccc(O)c5[nH]c(=O)ccc45)cc3)c2)C1.O=CO.O=CO |  | 25.1 | 5 | 52 | > 150 | 8 | 51
COc1cc(C(=O)NCCCOc2cccc([C@](O)(C(=O)OCC3CCN(CC4CC4)CC3)c3ccccc3)c2)c(F)cc1CNC[C@H](O)c1ccc(O)c2[nH]c(=O)ccc12.O=CO.O=CO | 10 | 316 | 9 | 47 | > 150 | 15 | > 150
CN1CCC(COC(=O)[C@](O)(c2ccccc2)c2cccc(OCCCNC(=O)c3ccc(CNC[C@H](O)c4ccc(O)c5[nH]c(=O)ccc45)cc3)c2)CC1 | 501 | 39.8 | < 2 | 15 | > 150 | 115 | 11
CN1CCC[C@@H](OC(=O)[C@](O)(c2ccccc2)c2cccc(OCCCNC(=O)c3ccc(CNC[C@H](O)c4ccc(O)c5[nH]c(=O)ccc45)c(F)c3)c2)C1.O=CO |  | 12.6 | 6 | 54 | > 150 | 15 | 84
COc1cc(C(=O)NCCCOc2cccc([C@](O)(C(=O)O[C@@H]3CCCN(C)C3)c3ccccc3)c2)c(OC)cc1CNC[C@H](O)c1ccc(O)c2[nH]c(=O)ccc12 |  | 63.1 | 6 | 61 | > 150 | > 150 | > 150
CN1CCC[C@@H](OC(=O)[C@](O)(c2ccccc2)c2cccc(OCCCNC(=O)c3ccc(CNC[C@H](O)c4ccc(O)c5[nH]c(=O)ccc45)nc3)c2)C1.O=CO.O=CO |  | 25.1 | < 2 | 20 | > 150 | 17 | > 150
O=C(NCCCOc1cccc([C@](O)(C(=O)O[C@@H]2CCN(Cc3ccccc3)C2)c2ccccc2)c1)c1ccc(CNC[C@H](O)c2ccc(O)c3[nH]c(=O)ccc23)cc1 |  | 158 | 23 | 69 | > 150 | 5 | 37
COc1cc(C(=O)NCCCOc2cccc([C@](O)(C(=O)O[C@@H]3CCCN(C)C3)c3ccccc3)c2)c(Cl)cc1CNC[C@H](O)c1ccc(O)c2[nH]c(=O)ccc12 |  | 25.1 | 6 | 36 | > 150 | 54 | 133
O=C(NCCCOc1cccc([C@](O)(C(=O)OC[C@@H]2CCN(Cc3ccccc3)C2)c2ccccc2)c1)c1ccc(CNC[C@H](O)c2ccc(O)c3[nH]c(=O)ccc23)cc1 |  | 79.4 | 5 | 37 | > 150 | 15 | 58
O=C(NCCCOc1cccc([C@](O)(C(=O)OC2CCN(Cc3ccccc3)CC2)c2ccccc2)c1)c1ccc(CNC[C@H](O)c2ccc(O)c3[nH]c(=O)ccc23)cc1 |  | 50.1 | 12 | 64 | > 150 | 135 | 8
